Two compounds from patent US20150368620A1, “METHOD OF DETACHING ADHERENT CELLS FOR FLOW CYTOMETRY” (KING ABDULLAH UNIVERSITY OF SCIENCE AND TECHNOLOGY, priority 2013, published 2015) can be followed below.

The test system of data set [1] is MCF-7 cells. To be noted: 12 μl of 15 mM EDTA pH 6.14 added to media, 37° C., 96-well. The protocol:
(§1) In one method, five thousand cells were plated per well in 45 μl of media in 96-well plate. The cells were shaken at 750 rpm with an Orbital shaker for 20 seconds and allowed to settle for 16-24 hrs in 5% CO2 incubator at 37° C. A desired concentration of drug was added to cells in a volume of […] to make the final volume per well up to 50 μl. The cells and drug were mixed at 750 rpm with an Orbital shaker for 20 seconds and incubated again for desired period of time. Twelve microliters of 15 mM EDTA pH 6.14 (upto 20 mM can be added depending on the cell line) were added per well, mixed at 750 rpm with an Orbital shaker for 20 seconds and incubated at 37° C. for 45 min to 1 hour (until cells lift). Fifteen microliters of media containing 1 μl APOPercentage dye was added to the cells and incubated for 15-20 min at 37° C. The cells were analyzed on flow cytometer setting a threshold for FSC-H of 80,000, cytometer speed at medium (2 μl/sec), peristaltic pump speed at 23 rpm, shaking on 1800 rpm, gating on 2D plot of FSC vs SSC and a 1D plot measuring FL2-H/FL3-H on the X axis. The HTFC system was used.
(§2) The following steps can be used to measure apoptosis using APOPercentage Assay in adherent cells. 5000 cells per well were plated in 45 μl of media in 96-well plate, shaken at 750 rpm with an Orbital shaker for 20 seconds, and allowed to settle 16-24 hours (h). Desired concentration of drug was added to cells in a volume of […] to make the final volume per well up to 50 μl, was shaken at 750 rpm with an Orbital shaker for 20 seconds, and was then incubated for desired period of time. 12 μl of 15 mM EDTA pH 6.14 per well was added (upto 20 mM can be added depending on the cell line). Shake at 750 rpm with an Orbital shaker for 20 seconds and incubate at 37° C. for 15 minutes (min) to 1 h (until cells lift).

Another data set deals with BJ cells. As to conditions: 12 μl of 15 mM EDTA pH 6.14 added to media, 37° C., 96-well. How it is done:
as §1, §2

The subject of data set [2] is DU145 cells. To be noted: 12 μl of 15 mM EDTA pH 6.14 added to media, 37° C., 96-well. How it is done: as §1, §2
Data set [3] deals with HeLa cells. To be noted: 12 μl of 15 mM EDTA pH 6.14 added to media, 37° C., 96-well. How it is done: as §1, §2
The subject of data set [4] is HT1080 cells. To be noted: 12 μl of 15 mM EDTA pH 6.14 added to media, 37° C., 96-well. The protocol: as §1, §2
In a further data set the test system is BJ, MCF-7 and HeLa cells. As to conditions: untreated cells lifted with EDTA, APOPercentage staining. How it is done:
as §1

Data set [5] concerns BT20 cells. As to conditions: 12 μl of 15 mM EDTA pH 6.14 added to media, 37° C., 96-well. The protocol: 5000 cells per well were plated in 45 μl of media in 96-well plate, shaken at 750 rpm with an Orbital shaker for 20 seconds, and allowed to settle 16-24 hours (h). Desired concentration of drug was added to cells in a volume of […] to make the final volume per well up to 50 μl, was shaken at 750 rpm with an Orbital shaker for 20 seconds, and was then incubated for desired period of time. […] Shake at 750 rpm with an Orbital shaker for 20 seconds and incubate at 37° C. for 15 minutes (min) to 1 h (until cells lift).

The subject of data set [6] is DU145 cells. Put plainly: APOPercentage apoptosis assay by flow cytometry. As to conditions: APOPercentage dye, 2.5 mM H2O2 positive control, Accuri C6 HTFC, 96-well. The class given is cell-based. How it is done: as §1
(§3) The following steps can be used to measure apoptosis using APOPercentage Assay in adherent cells. 5000 cells per well were plated in 45 μl of media in 96-well plate, shaken at 750 rpm with an Orbital shaker for 20 seconds, and allowed to settle 16-24 hours (h). […]

Data set [7] has as its system HT1080 cells. Put plainly: APOPercentage apoptosis assay by flow cytometry. To be noted: APOPercentage dye, 2.5 mM H2O2 positive control, Accuri C6 HTFC, 96-well. The class given is cell-based. How it is done:
as §1, §3

Data set [8] concerns DU145 cells. In words: Mitochondrial membrane potential (MMP) JC-1 assay by flow cytometry. The class given is cell-based. To be noted: 2 μM JC-1, 100 mM H2O2 positive control, Accuri C6 HTFC, 96-well. How it is done: (§4) The following can be the steps used to determining MMP by Flow Cytometry in adherent cells. […] Add 15 μl of serum free media containing JC-1 dye so that the final concentration is 2 μM in a total volume of 77 μl and incubate for 1-2 h at 37° C. […] 100 mM H2O2 can be used as a positive control.
In FIGS. 7A-B, DU145 Cells unstained (blue), untreated (red) or treated (green) were analyzed by flow cytometry on an Accuri C6 to determine the percentage of cells with disrupted MMP. Cells were seeded at a density of 5×10^3 cells per well in 96-well plate. Following day media was removed from cells and replaced with 50 μl EDTA as a positive control for MMP disruption for 60 min. Cells were lifted with EDTA and stained with a final concentration of 2 μM JC-1 dye and analyzed by flow cytometry. Separation of unstained (blue), untreated (red) and treated (green) cells based on FL2-H and FL-1-H profile (A). 1D Histogram of unstained (blue), untreated (red) and treated (green) cells measuring fluorescence in the FL2-H channel (B).
In FIG. 8, DU145 and MCF-7 Cells were analyzed by flow cytometry on a BD LSRFortessa HTS to determine the level of MMP in cells. Data was analyzed using FlowJo version 7.6.5 software. […] Cells were lifted with EDTA and analyzed by flow cytometry.

Data set [9] concerns HeLa cells. The description is as above. The class given is cell-based. As to conditions: 2 μM JC-1, 100 mM H2O2 positive control, Accuri C6 HTFC, 96-well. The protocol: as §4
In data set [10] the test system is BT20 cells. In words: Reactive oxygen species (ROS) DCFDA assay by flow cytometry. It is filed as cell-based. To be noted: 10 μM DCFDA, 2-10 mM H2O2 positive control, Accuri C6 HTFC, 96-well. How it is done: (§5) Add 15 μl of serum free media and incubate for 5-10 min.
The subject of data set [11] is HeLa cells. The data set is described as above. As to conditions: 10 μM DCFDA, 10 mM H2O2 positive control, Accuri C6 HTFC, 96-well. It is filed as cell-based. The protocol: as §5
In FIG. 9, HeLa and MCF-7 Cells were analyzed by flow cytometry on an Accuri C6 to determine the level of ROS in cells. Cells were seeded at a density of 5×10^3 cells per well in a 96-well plate, the following day cells were treated with 10 mM H2O2 as a positive control for ROS and test compounds. HeLa cells were stained with a final concentration of 10 μM DCFDA dye immediately after adding H2O2 (A). After incubation cells were lifted with EDTA and analyzed by flow cytometry. Separation of untreated (yellow) and treated (purple) cells based on FL-1-H profile (A). MCF-7 cells were treated with Plumbagin and its derivative Crotonate Plumbagin for 1 h (B). A final 10 μM DCFDA was added simultaneously with Plumbagin and its derivative to cells. Following incubation with drug cells were lifted with EDTA and analyzed by flow cytometry.
In FIGS. 10A-B, MCF-7 and HeLa Cells were analyzed by flow cytometry on a BD LSRFortessa HTS to determine the level of ROS in cells. Data was analyzed using FlowJo version 7.6.5 software. Cells were seeded at a density of 5×10^3 cells per well in a 96-well plate, the following day cells were left untreated (blue peak) or treated with 10 mM H2O2 as a positive control (red peak) for ROS. […] Cells were lifted with EDTA and analyzed by flow cytometry.

Data set [12] relates to MCF-7 cells. The data set is described as above. The class given is cell-based. To be noted: 10 μM DCFDA, 2-10 mM H2O2 positive control, Accuri C6 HTFC, 96-well. The protocol:
as §5
In FIGS. […] Data was analyzed using FlowJo version 7.6.5 software. Cells were seeded at a density of 5×10^3 cells per well in a 96-well plate, the following day cells were left untreated (blue peak) or treated with 10 mM H2O2 as a positive control (red peak) for ROS. MCF-7 and HeLa cells were stained with a final concentration of 10 μM DCFDA dye immediately after adding H2O2 (A and B). Cells were lifted with EDTA and analyzed by flow cytometry.

The subject of data set [13] is MCF-7 cells. Put plainly: Mitochondrial membrane potential (MMP) JC-1 assay by flow cytometry. The class given is cell-based. As to conditions: 2 μM JC-1, 100 mM H2O2 positive control, Accuri C6 HTFC, 96-well. The protocol: as §4
In FIG. […] Data was analyzed using FlowJo version 7.6.5 software. Cells were seeded at a density of 5×10^3 cells per well in a 96-well plate, the following day cells were left untreated (red) or treated with 100 mM H2O2 as a positive control (blue) for MMP disruption. DU145 cells were stained with a final concentration of 2 μM JC-1 dye (representative image). Cells were lifted with EDTA and analyzed by flow cytometry.

Data set [14] relates to HeLa cells. Put plainly: APOPercentage apoptosis assay by flow cytometry. To be noted: APOPercentage dye, 2.5 mM H2O2 positive control, Accuri C6 HTFC, 96-well. The class given is cell-based. The protocol: (§6) The HTFC system was used.
(§7) Untreated and treated HeLa cells were also analyzed by flow cytometry on an Accuri C6 flow cytometer to determine the percentage of cells undergoing apoptosis (FIG. 4). Cells were seeded at a density of 5×10^3 cells per well in 96 well plate. Cells treated with 2.5 mM H2O2 for 30 minutes or 62 μl EDTA pH 6.14 for 15-30 min. added to cells after removing media were used as a positive control for apoptosis. Cells were lifted and stained with 10 APOPercentage dye. The cells were then analyzed by flow cytometry. […] FIG. 4C is a bar graph showing the percentage of non-apoptotic and apoptotic cells within the untreated or treated population of cells.
(§8) Add 15 μl of serum free media containing 1 μl APOPercentage dye and incubate for 15-20 min at 37° C. […] 2.5 mM H2O2 is used as a positive control.
Cells were seeded at a density of 5×10^3 cells per well in a 96-well plate. Following day, cells were treated with 2.5 mM H2O2 for 30 min. or 62 μl EDTA pH 6.14 for 15-30 min. added to cells after removing media as a positive control for apoptosis for 15-30 min. Cells were lifted with EDTA and stained with […] and analyzed by flow cytometry. […] 1D Histogram of untreated (blue) and treated (red) cells measuring fluorescence in the FL2-H channel and applying gates to delineate Non-apoptotic (blue) and Apoptotic (red) cells (FIG. 5B). […]

For data set [15], the system named is MCF-7 cells. Put plainly: APOPercentage apoptosis assay by flow cytometry. The class given is cell-based. To be noted: APOPercentage dye, 2.5 mM H2O2 positive control, Accuri C6 HTFC, 96-well. How it is done:
as §6
as §7, with “treated MCF-7” for “treated HeLa”, “were” for “were also”, “(FIG. 3).” for “(FIG. 4).”, “apoptosis. The cells” for “apoptosis. Cells”, “with 1 μl” for “with 10”, “FIG. 3C” for “FIG. 4C”
as §8
In FIG. 6, MCF-7 Cells untreated (blue, left) or treated (red, right) were analyzed by flow cytometry on a BD LSRFortessa HTS flow cytometer to determine the percentage of cells undergoing apoptosis. Data was analyzed using FlowJo version 7.6.5 software. […] Cells were lifted with EDTA and stained with 1 μl APOPercentage and analyzed by flow cytometry. 1D Histogram of untreated (blue) and treated (red) cells measuring fluorescence in the PE-A channel and applying gates to delineate Non-apoptotic (blue) and Apoptotic (red) cells.

For a further data set, the system named is BJ fibroblast cells. In words: APOPercentage apoptosis assay by flow cytometry. The class given is cell-based. As to conditions: APOPercentage dye, 2.5 mM H2O2 positive control, Accuri C6 HTFC, 96-well. How it is done: as §6
BJ fibroblast cells were analyzed by flow cytometry on an Accuri C6 flow cytometer to determine the percentage of cells undergoing apoptosis (FIG. 2). Cells were seeded at a density of 5×10^3 cells per well in 96 well plate. Cells exposed to 2.5 mM H2O2 for 30 minutes or 62 μl EDTA pH 6.14 for 15-30 min. added to cells after removing media were used as a positive control for apoptosis. Cells were lifted and stained with 1 μl APOPercentage dye. The cells were then analyzed by flow cytometry. […] FIG. 2B includes a 1D Histogram of untreated and treated cells showing the fluorescence measured in the FL2-H channel, where gates were applied to delineate non-apoptotic and apoptotic cells. FIG. 2C is a bar graph showing the percentage of non-apoptotic and apoptotic cells that was measured within the untreated or treated (positive control) population of cells.
as §8

`O=C(O)CN(CCN(CC(=O)O)CC(=O)O)CC(=O)O` [EDTA, ethylenediaminetetraacetic acid]: the “Time to lift with EDTA” value in the data set on MCF-7 cells [1] was in the range of 15 to 20 min; in the data set with BJ cells, 30 to 50 min; in the data set on DU145 cells [2] it was 20 to 30 min; in the data set on HeLa cells [3], 30 to 45 min; in the data set with HT1080 cells [4] it was 20 to 30 min; in the data set with BT20 cells [5], 40 to 60 min. In addition, in the data set with BJ, MCF-7 and HeLa cells, the “effect of cell lifting chemical on untreated cells (membrane, apoptosis)” value was “did not induce unwanted apoptosis in untreated cells”.
As to `OO` [H2O2], the “Percent cells stained in positive control” value in the data set with DU145 cells [6] worked out at 90%; with HT1080 cells [7], 95%; in the data set on HeLa cells [14], 90%; with MCF-7 cells [15], 85%; in the data set with BJ fibroblast cells, 90%. The “Percent cells having JC-1 green in treated positive control” value is listed as 90% in the data set on DU145 cells [8], 90% in the data set on HeLa cells [9] and 95% with MCF-7 cells [13]. The “Percent cells stained with DCFDA in treated positive control” value in the data set with BT20 cells [10] is 95%; in the data set with HeLa cells [11] it was 90%; in the data set with MCF-7 cells [12], 90%.
